Measured values taken from patent US12485134B2, “Use of nicotinamide riboside, nicotinic acid riboside, reduced nicotinyl riboside compounds, and nicotinyl riboside compound derivatives in formulations” (ChromaDex Inc., priority 2019, dated 2025).

How the values were obtained:
[1] = tested on: hydrolyzed whey protein isolate; test: NR-Cl binding to hydrolyzed whey protein isolate (10 kDa cutoff filtration, unbound NR-Cl in filtrate by HPLC)
Description: (§1) A. Solutions of hydrolyzed whey protein isolate (>90% protein, 2-7% degree of hydrolysis) were prepared at varying concentrations and filtered through 0.2 μm sterile filters. An aliquot of sterile nicotinamide riboside chloride (“NR-Cl,” a salt of NR, I) in water solution was spiked into the sterile whey solutions, targeting a final NR-Cl concentration of 1 mmol per liter (0.3 mg/mL). The solutions containing the mixture of hydrolyzed whey and NR-Cl were filtered through 10 kDa molecular weight cutoff centrifuge filters to remove the whey proteins (14-80 kDa) and any NR-Cl that was bound to the proteins. Any NR-Cl that was not bound to the whey proteins was recovered in the filtrate and quantitated by HPLC.
(§2) The solutions of hydrolyzed whey protein isolate and NR-Cl were stored at ambient and refrigerated conditions and analyzed at various timepoints for NR-Cl protein binding and stability.
(§3) A study measuring the stability of NR-Cl in hydrolyzed and non-hydrolyzed whey protein was conducted with 2 mmol/L NR-Cl (0.6 mg/mL) and 20 mg/mL protein (33.3:1 wt:wt protein:NR-Cl). […] (See Table 5).

Beta-lactoglobulin = target: T1, Beta-lactoglobulin (Bos taurus, UniProt P02754); test: NR-Cl binding to individual whey proteins (cutoff filter method); details: 1 mmol/L each of protein and NR-Cl
T1 sequence (P02754 17-178): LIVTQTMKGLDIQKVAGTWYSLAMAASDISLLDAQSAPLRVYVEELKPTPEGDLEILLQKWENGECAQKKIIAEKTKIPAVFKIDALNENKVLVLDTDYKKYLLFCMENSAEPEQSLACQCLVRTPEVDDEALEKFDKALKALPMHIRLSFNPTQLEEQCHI
Description: as §1
(§4) The solutions were prepared with 1 mmol/L each of protein and NR-Cl. NR-Cl binding to one or more of these individual proteins could be responsible for the enhanced stability of NR-Cl seen in hydrolyzed whey protein isolate.

Transferrin = Transferrin (Bos taurus, UniProt Q29443); test: as above; details: 1 mmol/L each of protein and NR-Cl
Transferrin, sequence (Q29443 20-704): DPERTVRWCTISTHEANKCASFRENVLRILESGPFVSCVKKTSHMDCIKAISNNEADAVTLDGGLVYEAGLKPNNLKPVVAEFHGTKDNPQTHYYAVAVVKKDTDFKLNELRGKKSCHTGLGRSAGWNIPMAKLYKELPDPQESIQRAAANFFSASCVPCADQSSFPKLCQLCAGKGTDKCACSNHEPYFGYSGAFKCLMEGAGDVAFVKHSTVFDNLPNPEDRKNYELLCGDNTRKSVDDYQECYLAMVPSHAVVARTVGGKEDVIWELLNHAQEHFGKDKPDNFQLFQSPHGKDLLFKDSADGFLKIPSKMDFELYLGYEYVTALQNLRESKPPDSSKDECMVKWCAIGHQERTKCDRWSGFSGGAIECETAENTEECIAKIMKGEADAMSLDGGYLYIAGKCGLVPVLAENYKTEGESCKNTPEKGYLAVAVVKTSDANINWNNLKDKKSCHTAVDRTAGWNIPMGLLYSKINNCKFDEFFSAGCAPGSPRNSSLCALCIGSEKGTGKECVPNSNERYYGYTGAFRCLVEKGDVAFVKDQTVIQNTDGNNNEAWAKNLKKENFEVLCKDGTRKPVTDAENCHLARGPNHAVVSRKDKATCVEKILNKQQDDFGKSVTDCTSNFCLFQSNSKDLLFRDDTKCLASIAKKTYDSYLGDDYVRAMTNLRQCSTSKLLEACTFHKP
Description: as §1, §4

Lactoferrin = Lactoferrin (Bos taurus, UniProt P24627); test: as above; details: 1 mmol/L each of protein and NR-Cl
Lactoferrin, sequence (P24627 20-708): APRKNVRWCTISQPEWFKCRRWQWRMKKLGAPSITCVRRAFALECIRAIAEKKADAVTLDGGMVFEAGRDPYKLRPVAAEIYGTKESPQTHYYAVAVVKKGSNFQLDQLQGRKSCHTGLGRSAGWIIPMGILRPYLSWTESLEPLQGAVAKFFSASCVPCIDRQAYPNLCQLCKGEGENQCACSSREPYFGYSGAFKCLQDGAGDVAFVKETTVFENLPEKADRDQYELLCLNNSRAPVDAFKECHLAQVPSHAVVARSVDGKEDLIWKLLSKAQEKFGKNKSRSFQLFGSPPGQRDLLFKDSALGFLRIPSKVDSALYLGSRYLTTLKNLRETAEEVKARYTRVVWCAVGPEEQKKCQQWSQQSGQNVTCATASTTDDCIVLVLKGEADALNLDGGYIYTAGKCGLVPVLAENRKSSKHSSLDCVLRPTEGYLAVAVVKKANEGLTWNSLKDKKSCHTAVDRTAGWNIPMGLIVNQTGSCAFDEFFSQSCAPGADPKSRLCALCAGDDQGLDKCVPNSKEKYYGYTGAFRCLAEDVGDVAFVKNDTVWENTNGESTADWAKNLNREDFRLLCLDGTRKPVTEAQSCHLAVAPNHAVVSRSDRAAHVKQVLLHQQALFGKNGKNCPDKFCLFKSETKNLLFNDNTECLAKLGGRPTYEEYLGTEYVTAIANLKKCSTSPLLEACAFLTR
Description: as §1, §4

Albumin = Albumin (Bos taurus, UniProt P02769); test: as above; details: 1 mmol/L each of protein and NR-Cl
Albumin, sequence (P02769 25-607): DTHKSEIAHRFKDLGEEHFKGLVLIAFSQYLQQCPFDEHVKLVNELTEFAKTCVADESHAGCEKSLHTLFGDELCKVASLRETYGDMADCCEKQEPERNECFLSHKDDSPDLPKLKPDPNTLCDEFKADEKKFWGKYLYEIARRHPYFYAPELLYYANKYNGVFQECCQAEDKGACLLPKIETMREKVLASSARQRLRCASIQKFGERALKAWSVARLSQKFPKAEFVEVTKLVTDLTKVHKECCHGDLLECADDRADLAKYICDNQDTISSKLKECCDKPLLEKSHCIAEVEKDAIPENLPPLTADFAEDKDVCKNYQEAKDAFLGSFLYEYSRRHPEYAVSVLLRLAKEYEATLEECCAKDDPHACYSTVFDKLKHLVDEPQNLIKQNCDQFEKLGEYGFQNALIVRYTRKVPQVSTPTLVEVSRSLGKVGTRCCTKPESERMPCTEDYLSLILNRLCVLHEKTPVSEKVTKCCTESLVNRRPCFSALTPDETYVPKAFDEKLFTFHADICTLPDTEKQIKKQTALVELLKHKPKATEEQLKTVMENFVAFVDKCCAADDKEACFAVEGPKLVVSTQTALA
Description: as §1, §4

Alpha-lactalbumin = target: T2, Alpha-lactalbumin (Bos taurus, UniProt P00711); test: as above; details: 1 mmol/L each of protein and NR-Cl
T2 sequence (P00711 20-142): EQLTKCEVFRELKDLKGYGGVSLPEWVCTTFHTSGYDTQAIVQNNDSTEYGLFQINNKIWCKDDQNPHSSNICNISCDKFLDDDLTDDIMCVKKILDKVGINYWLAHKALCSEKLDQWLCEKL
Description: as §1, §4

[2] = tested on: non-hydrolyzed whey protein; test: NR-Cl binding to non-hydrolyzed whey protein isolate (cutoff filter method); details: Non-Hydrolyzed Whey Protein Isolate 20 mg/mL, 2 mmol/L NR-Cl (33.3:1 wt:wt)
Description: as §1, §3

soy isolate proteins = test: WaterLOGSY NMR binding of NR-Cl; details: native vs denatured, pH 7.0
Description: WaterLOGSY is a sensitive ligand-observed NMR experiment designed for the screening of protein ligands from a mixture of potential binders. […] The experiment relies on fast dissociation of bound ligands to carry into the free state magnetisation originating from irradiated water that has been transmitted via the protein complex.
NMR samples for WaterLOGSY were prepared as follows. Ligand-detect WaterLOGSY experiments were carried at 600 MHz with 5-mm cryoprobe and using 5-mm NMR tubes. Each NMR sample for WaterLOGSY contained ˜0.05 mg (˜0.35 mM), using unlabeled ligand NR-Cl (“NR”), in a NMR buffer containing ˜0.5 mL 90% H2O/10% ^2H2O at pH 7.0 with or without the milk and soy protein mix (compared to the WaterLOGSY of NR as a negative control). Protein was added as a powder with a minimal 15 to 50 μM concentration. Typically, the final NMR sample of protein-compound mixtures had >20-fold higher compound concentration of ligand compared to that of the protein. Denatured samples were prepared by simply heating (80° C. for 15-20 mins) the aqueous (5-10% ^2H2O) protein mixture (in absence of NR).

[3] = Stability of NR-Cl in whey protein isolate solutions (% nicotinamide degradant, vs control of NR-Cl in water only); type: physicochemical; details: for increase in nicotinamide: after 1 day at refrigerated conditions
Description: as §1, §2, §3

[4] = Hydrolyzed Whey Protein Isolate 20 mg/mL, 2 mmol/L NR-Cl (33.3:1 wt:wt), 0 days refrigerated
[5] = Hydrolyzed Whey Protein Isolate 20 mg/mL, 2 mmol/L NR-Cl (33.3:1 wt:wt), 1 day refrigerated
[6] = hydrolyzed whey:NR-Cl 18.3:1 (wt:wt), 0 days ambient
[7] = hydrolyzed whey:NR-Cl 18.3:1 (wt:wt), 0 days refrigerated
[8] = hydrolyzed whey:NR-Cl 18.3:1 (wt:wt), 3 days ambient
[9] = hydrolyzed whey:NR-Cl 18.3:1 (wt:wt), 5 days ambient
[10] = hydrolyzed whey:NR-Cl 18.3:1 (wt:wt), 7 days ambient
[11] = hydrolyzed whey:NR-Cl 18.3:1 (wt:wt), 30 days refrigerated
[12] = hydrolyzed whey:NR-Cl 37:1 (wt:wt), 0 days ambient
[13] = hydrolyzed whey:NR-Cl 37:1 (wt:wt), 0 days refrigerated
[14] = hydrolyzed whey:NR-Cl 37:1 (wt:wt), 3 days ambient
[15] = hydrolyzed whey:NR-Cl 37:1 (wt:wt), 5 days ambient
[16] = hydrolyzed whey:NR-Cl 37:1 (wt:wt), 7 days ambient
[17] = hydrolyzed whey:NR-Cl 37:1 (wt:wt), 30 days refrigerated
[18] = hydrolyzed whey:NR-Cl 73:1 (wt:wt), 0 days ambient
[19] = hydrolyzed whey:NR-Cl 73:1 (wt:wt), 0 days refrigerated
[20] = hydrolyzed whey:NR-Cl 73:1 (wt:wt), 3 days ambient
[21] = hydrolyzed whey:NR-Cl 73:1 (wt:wt), 5 days ambient
[22] = hydrolyzed whey:NR-Cl 73:1 (wt:wt), 7 days ambient
[23] = hydrolyzed whey:NR-Cl 73:1 (wt:wt), 30 days refrigerated
[24] = hydrolyzed whey:NR-Cl 147:1 (wt:wt), 0 days ambient
[25] = hydrolyzed whey:NR-Cl 147:1 (wt:wt), 3 days ambient
[26] = hydrolyzed whey:NR-Cl 147:1 (wt:wt), 5 days ambient
[27] = hydrolyzed whey:NR-Cl 147:1 (wt:wt), 7 days ambient
[28] = hydrolyzed whey:NR-Cl 293:1 (wt:wt), 0 days ambient
[29] = hydrolyzed whey:NR-Cl 293:1 (wt:wt), 3 days ambient
[30] = hydrolyzed whey:NR-Cl 293:1 (wt:wt), 7 days ambient

With `NC(=O)c1ccc[n+]([C@@H]2O[C@H](CO)[C@@H](O)[C@H]2O)c1.[Cl-]` [NR-Cl, nicotinamide riboside chloride] the “fraction of NR-Cl bound to whey protein over the course of the experiments” value ([1]; 7 days ambient, 30 days refrigerated) was “remain stable”, the “% NR-Cl Bound to Protein” value [1, 4] was 55% and the “% NR-Cl Bound to Protein” value [1, 5] was 56%. For the same molecule, the “% NR-Cl Bound to Protein” value ([1]; hydrolyzed whey protein isolate:NR-Cl 18.3:1 (wt:wt), 1 mmol/L NR-Cl) was 41%, the “% NR-Cl Bound to Protein” value ([1]; hydrolyzed whey protein isolate:NR-Cl 37:1 (wt:wt), 1 mmol/L NR-Cl) was 47% and the “% NR-Cl Bound to Protein” value ([1]; hydrolyzed whey protein isolate:NR-Cl 73:1 (wt:wt), 1 mmol/L NR-Cl) was 60%. For the same molecule, the “% NR-Cl Bound to Protein” value ([1]; hydrolyzed whey protein isolate:NR-Cl 147:1 (wt:wt), 1 mmol/L NR-Cl) was 65%, the “% NR-Cl Bound to Protein” value ([1]; hydrolyzed whey protein isolate:NR-Cl 293:1 (wt:wt), 1 mmol/L NR-Cl) was 67% and the “% NR-Cl Bound to Protein” value [1, 6] was 41%. For the same molecule, the “% NR-Cl Bound to Protein” value [1, 7] was 41%, the “% NR-Cl Bound to Protein” value [1, 8] was 44% and the “% NR-Cl Bound to Protein” value [1, 9] was 45%. For the same molecule, the “% NR-Cl Bound to Protein” value [1, 10] was 43%, the “% NR-Cl Bound to Protein” value [1, 11] was 24% and the “% NR-Cl Bound to Protein” value [1, 12] was 47%. The “% NR-Cl Bound to Protein” value [1, 13] was 47%, the “% NR-Cl Bound to Protein” value [1, 14] was 55% and the “% NR-Cl Bound to Protein” value [1, 15] was 54%. The “% NR-Cl Bound to Protein” value [1, 16] was 54%, the “% NR-Cl Bound to Protein” value [1, 17] was 45% and the “% NR-Cl Bound to Protein” value [1, 18] was 60%. For the same molecule, the “% NR-Cl Bound to Protein” value [1, 19] was 60%, the “% NR-Cl Bound to Protein” value [1, 20] was 66% and the “% NR-Cl Bound to Protein” value [1, 21] was 65%. The “% NR-Cl Bound to Protein” value [1, 22] was 65%, the “% NR-Cl Bound to Protein” value [1, 23] was 57% and the “% NR-Cl Bound to Protein” value [1, 24] was 65%. The “% NR-Cl Bound to Protein” value [1, 25] was 71%, the “% NR-Cl Bound to Protein” value [1, 26] was 72% and the “% NR-Cl Bound to Protein” value [1, 27] was 69%. For the same molecule, the “% NR-Cl Bound to Protein” value [1, 28] was 67%, the “% NR-Cl Bound to Protein” value [1, 29] was 62% and the “% NR-Cl Bound to Protein” value [1, 30] was 72%. For the same molecule, the “% NR-Cl Bound to Protein” value (Beta-lactoglobulin) was 66%, the “% NR-Cl Bound to Protein” value (Transferrin) was 15% and the “% NR-Cl Bound to Protein” value (Lactoferrin) was 28%. The “% NR-Cl Bound to Protein” value (Albumin) was 47%, the “% NR-Cl Bound to Protein” value (Alpha-lactalbumin) was 62% and the “% NR-Cl Bound to Protein” value ([2]; 0 days refrigerated) was 49%. For the same molecule, the “% NR-Cl Bound to Protein” value ([2]; 1 day refrigerated) was 54%, the WaterLOGSY binding (soy isolate proteins) was “increase in binding with NR-Cl only after denaturation” and the “% Nicotinamide” value ([3]; Control (NR-Cl in water only), 0 days ambient) was 0.2%. The “% Nicotinamide” value ([3]; Control (NR-Cl in water only), 0 days refrigerated) was 0.2%, the “% Nicotinamide” value ([3]; Control (NR-Cl in water only), 3 days ambient) was 3.8% and the “% Nicotinamide” value ([3]; Control (NR-Cl in water only), 5 days ambient) was 4.8%. The “% Nicotinamide” value ([3]; Control (NR-Cl in water only), 7 days ambient) was 5.3%, the “% Nicotinamide” value ([3]; Control (NR-Cl in water only), 30 days refrigerated) was 2.3% and the “% Nicotinamide” value [3, 4] was 0.1%. The “% Nicotinamide” value [3, 5] was 0.1%, the “% Nicotinamide” value ([3]; Non-Hydrolyzed Whey Protein Isolate 20 mg/mL, 2 mmol/L NR-Cl (33.3:1 wt:wt), 0 days refrigerated) was 0.3% and the “% Nicotinamide” value ([3]; Non-Hydrolyzed Whey Protein Isolate 20 mg/mL, 2 mmol/L NR-Cl (33.3:1 wt:wt), 1 day refrigerated) was 5.4%. The increase in nicotinamide ([3]; hydrolyzed whey solution) was “did not show any increase”, the “% Nicotinamide” value [3, 6] was 0.1% and the “% Nicotinamide” value [3, 7] was 0.1%. The “% Nicotinamide” value [3, 8] was 2.2%, the “% Nicotinamide” value [3, 9] was 3.3% and the “% Nicotinamide” value [3, 10] was 3.9%. For the same molecule, the “% Nicotinamide” value [3, 11] was 1.5%, the “% Nicotinamide” value [3, 12] was 0.2% and the “% Nicotinamide” value [3, 13] was 0.2%. The “% Nicotinamide” value [3, 14] was 2.1%, the “% Nicotinamide” value [3, 15] was 3.1% and the “% Nicotinamide” value [3, 16] was 3.8%. The “% Nicotinamide” value [3, 17] was 1.4%, the “% Nicotinamide” value [3, 18] was 0.2% and the “% Nicotinamide” value [3, 19] was 0.2%. For the same molecule, the “% Nicotinamide” value [3, 20] was 2.4%, the “% Nicotinamide” value [3, 21] was 3.2% and the “% Nicotinamide” value [3, 22] was 4.2%. The “% Nicotinamide” value [3, 23] was 1.6%, the “% Nicotinamide” value [3, 24] was 0.3% and the “% Nicotinamide” value [3, 25] was 2.4%. The “% Nicotinamide” value [3, 26] was 3.4%, the “% Nicotinamide” value [3, 27] was 4.1% and the “% Nicotinamide” value [3, 28] was 0.6%. For the same molecule, the “% Nicotinamide” value [3, 29] was 2.8%, the “% Nicotinamide” value [3, 30] was 4.4% and the increase in nicotinamide ([3]; non-hydrolyzed whey solution) was 5%.
